Laboratory results as given in article PMC3958311 (EMBO Molecular Medicine, 2014).
Values after ≈ are worked out from the molar mass of the structure shown. Values joined by “and” are separate entries in the source; they are usually repeats but may differ in a detail not shown here. Equal values may be shown once.

What was measured:
M. tuberculosis NTB1 = format: cell-based, Mycobacterium tuberculosis
M. tuberculosis H37Rv = details: stated in the Introduction; ref Makarov et al, 2009; cited from earlier work

`CO[C@H]1/C=C/O[C@@]2(C)Oc3c(C)c(O)c4c(O)c(c(/C=N/N5CCN(C)CC5)c(O)c4c3C2=O)NC(=O)/C(C)=C\C=C\[C@H](C)[C@H](O)[C@@H](C)[C@@H](O)[C@@H](C)[C@H](OC(C)=O)[C@@H]1C` [RIF, rifampicin] showed an MIC99 (M. tuberculosis NTB1) of 0.001 µg/mL (≈ 0.00122 µM).
In the case of `C[C@H]1COC2(CCN(c3nc(=O)c4cc(C(F)(F)F)cc([N+](=O)[O-])c4s3)CC2)O1` [BTZ043, 2-[(2S)-2-methyl-1,4-dioxa-8-azaspiro[4.5]dec-8-yl]-8-nitro-6-(trifluoromethyl)-4H-1,3-benzothia-zin-4-one], the MIC (M. tuberculosis H37Rv) is listed as 1 ng/ml and 2.3 nM, the MIC99 (M. tuberculosis NTB1) is listed as 25 µg/mL (≈ 58 µM) and the “fold increased resistance conferred by the Cys387Ser mutation in DprE1” value (M. tuberculosis NTB1) is listed as > 10 000 fold.
For `O=c1nc(N2CCN(CC3CCCCC3)CC2)sc2c([N+](=O)[O-])cc(C(F)(F)F)cc12` [PBTZ169], the MIC99 (M. tuberculosis NTB1) was >100 µg/mL and the “fold increased resistance conferred by the Cys387Ser mutation in DprE1” value (M. tuberculosis NTB1) was > 10 000 fold.
In the case of moxifloxicin [MXF], the MIC99 (M. tuberculosis NTB1) is reported as 0.03 µg/mL.
